Earlier results on two molecules are cited in patent US11192954B2, “Compounds and methods for the treatment of TROP2 positive diseases” (BIO-THERA SOLUTIONS, LTD., priority 2017, dated 2021).

Series [1] deals with Lewis lung carcinoma and B-16 melanocarcinoma solid murine tumor models. The conditions noted are these: mouse, in vivo; cited from earlier work.
In series [2] the test system is multiple cancer cell lines. The settings on record: cited from earlier work.

The structures appear in SMILES notation.

Take `COc1cc2cc(c1Cl)N(C)C(=O)C[C@H](OC(=O)[C@H](C)N(C)C(C)=O)[C@]1(C)O[C@H]1[C@H](C)[C@@H]1C[C@@](O)(NC(=O)O1)[C@H](OC)/C=C/C=C(\C)C2` [Maytansine]: in series [1], the “Activity against murine tumors” value is “significant inhibitory activity”. With `COc1cc2cc(c1Cl)N(C)C(=O)C[C@H](OC(=O)C(C)C)[C@]1(C)O[C@@H]1[C@H](C)[C@@H]1C[C@@](O)(NC(=O)O1)[C@H](OC)/C=C/C=C(\C)C2` [Ansamitocin P3], in series [2], the “Activity against multiple cancer cell lines” value is “effective”.
